What was measured:
[1] = system: galactitol accumulation in the lenses and sciatic nerves; experiment: In vivo lowering of dulcitol (galactitol) accumulation in galactosemic rats; design: species or system rat (male, Sprague-Dawley); conditions: for effect on accumulation of galactitol in the lenses and sciatic nerves (in words): rats fed galactose
Text: The aldose reductase inhibiting property of the compounds of this invention and the utilization of the compounds in preventing, diminishing and alleviating diabetic complications are demonstrable in experiments using galactosemic rats, see Dvornik et al, cited above. Such experiments are exemplified hereinbelow after the listing of the following general comments pertaining to these experiments:
(a) Four or more groups of six male rats, 50-70 g, Sprague-Dawley strain, were used. The first group, the control group, was fed a mixture of laboratory chow (rodent Laboratory Chow, Purina) and glucose at 20% (w/w %) concentration. The untreated galactosemic group and the drug-treated groups were fed a similar diet in which galactose is substituted for glucose. The test compound was either admixed to the diet or administered by gavage. In experiments involving compound administration in the diet, the average dose administered was calculated from the actual food intake of the animals in each group. The concentration of galactose in the diet of the treated groups was the same as that for the untreated galactosemic group.
(b) After four days, the animals were killed by decapitation. The eyeballs were removed and punctured with a razor blade; the freed lenses were rolled gently on filter paper and weighed. The sciatic nerves were dissected as completely as possible and weighed. Both tissues when frozen can be kept up to two weeks before being analyzed for galactitol.
(c) The polyol determination was performed by a modification of the procedure of M. Kraml and L. Cosyns, Clin. Biochem., 2, 373 (1969). Only two minor reagent changes were made: (a) The rinsing mixture was an aqueous 5% (w/v) trichloroacetic acid solution and (b) the stock solution was prepared by dissolving 25 mg of dulcitol in 100 mL of an aqueous trichloroacetic acid solution. [N.B.: For each experiment the average value found in the tissue from rats fed the glucose diet was subtracted from the individual values found in the corresponding tissue in galactose-fed rats to obtain the amount of polyol accumulated.] The aldose reductase inhibiting effects of the compounds of formula (I) were also tested by employing an in vitro testing procedure similar to that described by S. Hayman and J. H. Kinoshita, J. Biol. Chem., 240, 877 (1965). In the present case the procedure of Hayman and Kinoshita was modified in that the final chromatography step was omitted in the preparation of the enzyme from bovine lens.
The figures under L and N represent the percentage decrease of galactitol accumulation in the tissues of the lens and sciatic nerve, respectively, for treated rats as compared to untreated rats.

[2] = Metabolites of tolrestat found in humans and other mammals; type: in vivo
aldose reductase = target: T1, aldose reductase (Bos taurus, UniProt P16116); experiment: In vitro inhibition of aldose reductase from bovine lens (modified Hayman and Kinoshita procedure); type: biochemical; conditions: 10^-7 M; enzyme from bovine lens
T1 construct: preparation of the enzyme from bovine lens; from tissue; host or cells: bovine lens
Description: Only two minor reagent changes were made: (a) The rinsing mixture was an aqueous 5% (w/v) trichloroacetic acid solution and (b) the stock solution was prepared by dissolving 25 mg of dulcitol in 100 mL of an aqueous trichloroacetic acid solution. [N.B.: For each experiment the average value found in the tissue from rats fed the glucose diet was subtracted from the individual values found in the corresponding tissue in galactose-fed rats to obtain the amount of polyol accumulated.] […] In the present case the procedure of Hayman and Kinoshita was modified in that the final chromatography step was omitted in the preparation of the enzyme from bovine lens.

[3] = lens, 50 mg/kg/day, gavage (same experiment), four days
[4] = sciatic nerve, 50 mg/kg/day, gavage (same experiment), four days

COc1ccc2c(C(=O)N(C)CC(=O)O)cccc2c1C(F)(F)F [N--[[6-methoxy-5-(trifluoromethyl)-1-naphthalenyl]carbonyl]-N--methylglycine, reference compound]
% lowering dulcitol accumulation in vivo, L (lens) [1, 3]: 0% | % lowering dulcitol accumulation in vivo, N (sciatic nerve) [1, 4]: 59%

COc1ccc2c(C(=S=O)N(C)CC(=O)O)cccc2c1C(F)(F)F [N-[[6-Methoxy-5-(trifluoromethyl)-1-naphthalenyl]thioxomethyl]-N-methylglycine S-oxide]
occurrence as metabolite of tolrestat (in words) [2]: one of the metabolites of tolrestat found in humans and other mammals | inhibition at 0.1 µM (aldose reductase): 80% | comparison with tolrestat at 10 mg/kg/day (in words) ([1]; at a dose of 50 mg/kg/day): comparable results | % lowering dulcitol accumulation in vivo, L (lens) ([1]; lens, 20 mg/kg/day, diet, four days): 0% | % lowering dulcitol accumulation in vivo, L (lens) [1, 3]: 0% | % lowering dulcitol accumulation in vivo, L (lens) ([1]; lens, 115 mg/kg/day, diet, four days): 20% | effect on accumulation of galactitol in the lenses and sciatic nerves (in words) [1]: diminish the accumulation of galactitol in the lenses and sciatic nerves of rats fed galactose | % lowering dulcitol accumulation in vivo, N (sciatic nerve) ([1]; sciatic nerve, 20 mg/kg/day, diet, four days): 45% | % lowering dulcitol accumulation in vivo, N (sciatic nerve) [1, 4]: 70% | % lowering dulcitol accumulation in vivo, N (sciatic nerve) ([1]; sciatic nerve, 115 mg/kg/day, diet, four days): 100%

COc1ccc2c(C(=S=O)N(C)CC(N)=O)cccc2c1C(F)(F)F [[[[6-Methoxy-5-(trifluoromethyl)-1-naphthalenyl]thioxomethyl]methylamino]-acetamide S-oxide]
inhibition at 0.1 µM (aldose reductase): 3% | % lowering dulcitol accumulation in vivo, L (lens) ([1]; 58 mg/kg/day, 96 h): 0% | % lowering dulcitol accumulation in vivo, N (sciatic nerve) ([1]; 58 mg/kg/day, 96 h): 77% | comparison with tolrestat at 10 mg/kg/day (in words) ([1]; at a dose of 58 mg/kg/day): comparable results | % lowering dulcitol accumulation in vivo, L (lens) ([1]; lens, 12 mg/kg/day, mode of administration not given, four days): 0% | effect on accumulation of galactitol in the lenses and sciatic nerves (in words) [1]: diminish the accumulation of galactitol in the lenses and sciatic nerves of rats fed galactose | % lowering dulcitol accumulation in vivo, N (sciatic nerve) ([1]; sciatic nerve, 12 mg/kg/day, mode of administration not given, four days): 45%

COc1ccc2c(C(=S)N(C)CC(=O)O)cccc2c1C(F)(F)F [tolrestat, N-[[6-methoxy-5-(trifluoromethyl)-1-naphthalenyl]thioxomethyl]-N-methylglycine, reference compound]
% lowering dulcitol accumulation in vivo, L (lens) ([1]; lens, 10 mg/kg/day, gavage (same experiment), four days): 0% | % lowering dulcitol accumulation in vivo, N (sciatic nerve) ([1]; sciatic nerve, 10 mg/kg/day, gavage (same experiment), four days): 81%

Source: US4734435A, “N-[[6-methoxy-5-(trifluoromethyl)-1-naphthalenyl]-thioxome thyl]-N-methylglycine S-oxide and the amide thereof” (American Home Products Corp., priority 1986, dated 1988)
